“And” between values parts separate entries of the source, which are not always exact repeats. Identical values can stand only once.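 96-well plates; 48 h exposure; 5 concentrations. Endpoints by linear interpolation between flanking doses. Not reached: highest tested concentration assigned. The concentration for 50% growth inhibition is given as GI50. TGI: concentration producing complete growth inhibition.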
Experiments:
Assay in all cases: NCI tumour cell line growth inhibition, 48 h
SNB-75 CNS = test system: SNB-75 CNS
CCRF-CEM leukemia = test system: CCRF-CEM leukemia
NCI-H522 lung = test system: NCI-H522 lung
SN12C renal = test system: SN12C renal
786-0 renal = test system: 786-0 renal
HOP-62 NSCLC = test system: HOP-62 NSCLC
SK-OV-3 ovarian = test system: SK-OV-3 ovarian
UACC-257 melanoma = test system: UACC-257 melanoma
T-47D breast = test system: T-47D breast
HCT-15 colon = test system: HCT-15 colon

Row | SMILES | GI50 (SNB-75 CNS) [µM] | TGI (SNB-75 CNS) | GI50 (CCRF-CEM leukemia) [µM] | TGI (CCRF-CEM leukemia) [µM] | GI50 (NCI-H522 lung) [µM] | TGI (NCI-H522 lung) | GI50 (SN12C renal) [µM] | TGI (SN12C renal) [µM] | GI50 (786-0 renal) [µM] | TGI (786-0 renal) | GI50 (HOP-62 NSCLC) [µM] | TGI (HOP-62 NSCLC) | GI50 (SK-OV-3 ovarian) [µM] | TGI (SK-OV-3 ovarian) [µM] | GI50 (UACC-257 melanoma) [µM] | TGI (UACC-257 melanoma) | GI50 (T-47D breast) [µM] | TGI (T-47D breast) [µM] | GI50 (HCT-15 colon) [µM] | TGI (HCT-15 colon)
1 | C1COCCN1.C1COCCN1.NC1CCCCC1N.[Cl-].[Pt+2] (stereo unspecified) | > 100 | > 100 µM | > 100 | > 100 | 46.5 | > 100 µM | > 100 | > 100 | > 100 | > 100 µM | > 100 | > 100 µM | > 100 | > 100 | > 100 | > 100 µM |  |  |  | 
2 | O=c1oc(Cl)c(Cl)c2ccccc12 | 24.7 | 59.3 µM |  |  | > 100 | > 100 µM | 14.8 | 31.4 | 19.2 | 40.4 µM | 25.9 | 48.9 µM | 59.8 | > 100 | 93.8 | > 100 µM | 40.6 | > 100 | 23.1 | 61.3 µM
3 | CCn1cc(C(=O)N/N=C/c2ccccc2)c(=O)c2cc(F)c(N3CCNC(C)C3)c(F)c21 (stereo unspecified) |  |  |  |  |  |  |  |  | 1.68 | 3.25 µM |  |  | 1.81 | 3.25 |  |  |  |  | 1.45 | 2.82 µM
4 | O=C1C2C3C=C4c5ccccc5N(c5ccccc5)C4(C2C(=O)N1c1ccc(Cl)cc1)[C@H]1C(=O)N(c2ccc(Cl)cc2)C(=O)[C@@H]31 (stereo partly specified) |  | > 100 µM |  | > 100 |  | > 100 µM |  | > 100 |  | > 100 µM |  | > 100 µM |  | > 100 |  | > 100 µM |  |  |  | > 100 µM
5 | COc1cccc2c1C(=O)c1c(O)c3c(c(O)c1C2=O)CC(O)(C(O)CO)CC3OC1CC(N2CCOCC2)C(O)C(C)O1 (stereo unspecified) |  | 0.0131 µM and 0.0549 µM |  | 0.221 | 0.0264 | 0.0172 µM and 0.0956 µM | 0.0186 |  | < 0.001 | 0.148 µM and 0.0989 µM | 0.0262 | 0.0566 µM and 0.081 µM | 0.0579 |  | 0.0199 | 0.013 µM and 0.0424 µM |  |  | 0.0536 | 0.515 µM and 1.36 µM
6 | CC(=O)NNc1nc(C)c(C(=O)/C=C/c2ccccc2Cl)s1 |  | > 100 µM |  | > 100 |  | > 100 µM |  | > 100 |  | > 100 µM |  | > 100 µM |  | > 100 |  | > 100 µM |  |  |  | > 100 µM
7 | N.N.N.N.N.[Cl-].[Co+3].c1ccc(-c2nn[n-]n2)cc1 | > 100 | > 100 µM | > 100 | > 100 |  |  | > 100 | > 100 | > 100 | > 100 µM | > 100 | > 100 µM | > 100 | > 100 | > 100 | > 100 µM |  |  | > 100 | > 100 µM
8 | c1csc(-c2cn3nc(-c4c[nH]c5ccccc45)sc3n2)c1 | 0.445 | 8.09 µM | 2.19 | 27.2 | 0.754 | > 100 µM | 1.15 | > 100 | 3.06 | > 100 µM | 1.58 | 39.9 µM | 2.8 | 82.7 | 11.4 | 98.3 µM |  |  | 0.488 | 15.6 µM

Reference: PubChem BioAssay (NCI)
